Results: US12129265B2, “Therapeutic agents and uses thereof” (Ankh Life Sciences Limited, priority 2020, dated 2024)
pIC50: −log10 of the molar value. Like-named read-outs stand apart in the source and are kept apart here. Values belong to the molecule of their own block, whether it stands above or below them.

Tests used:
Experiment in all cases: CellTiter-Glo in vitro cell proliferation assay, Example 8
Type in all cases: cell-based, Human
[1] = system: A2780 cells; settings: A2780, Ovarian, read-out: Mean IC50
Procedure: (§1) In this Example, in vitro cell proliferation assays were performed using: (1) Human Myeloma tumor cell lines; (2) Human Lymphoma tumor cell lines; (3) Solid Human tumor cell lines; and (4) Parental, Lenalidomide resistant and Bortezomib resistant Jeko-1 Mantle cell Lymphoma tumor cell lines. The compounds tested were three diharmaline compounds, namely the 518B562 (or simply 562), 560, and 561 compounds. In addition, a monoharmaline product designated as 518F014 was also tested. This monoharmaline product had the following structure:
(§2) Each proliferation assay was carried out as follows. The test cells were plated in growth media using a 384-well microtiter plate at 50 μL volume. The cells were incubated for 24 hours at 37° C. in a humidified incubator. After 24 hours of incubation, the test compounds were added to the test wells in DSMO solvent, at concentrations ranging from 0.0075-100 μM. Control wells received equal volumes of DSMO, without compound. Following drugging, the cells were incubated for 72 hours at 37° C. in a humidified incubator. After this exposure, 100 μL of a 1:1 mixture of sterile water and CellTiter-Glo® reagent (Promega) was added to each well. The plates were then incubated for 60 minutes at room temperature, followed by recording the luminescence value of each well using a luminometer as a measure of cell proliferation.

[2] = system: A2780CP cells; settings: Ovarian, read-out: Mean IC50
Procedure: as §1, §2

[3] = system: A498 cells; settings: A498, RCC, read-out: Mean IC50
Procedure: as §1, §2

[4] = system: AN3CA cells; settings: Endometrial, read-out: Mean IC50
Procedure: as §1, §2

[5] = system: ASPC-1 cells; settings: ASPC-1, Pancreatic, read-out: Mean IC50
Procedure: as §1, §2

[6] = system: BxPC-3 cells; settings: BxPC-3, Pancreatic, read-out: Mean IC50
Procedure: as §1, §2

[7] = system: DOHH-2 cells; settings: DoHH-2, GCB-DLBCL, read-out: Mean IC50
Procedure: as §1, §2

[8] = system: FaDu cells; settings: H&N - SC, read-out: Mean IC50
Procedure: as §1, §2

[9] = system: H1650 (EGFR mut) cells; settings: read-out: Mean IC50
Procedure: as §1, §2

[10] = system: H1975 (EGFR mut) cells; settings: read-out: Mean IC50
Procedure: as §1, §2

[11] = system: HCC70 cells; settings: HCC70, TNBC, read-out: Mean IC50
Procedure: as §1, §2

[12] = system: HEC-1a cells; settings: Endometrial, read-out: Mean IC50
Procedure: as §1, §2

[13] = system: JIM1 cells; settings: JIM1, HMCL, read-out: Mean IC50
Procedure: as §1, §2

[14] = system: KMM-1 cells; settings: KMM-1, HMCL-A, read-out: Mean IC50
Procedure: as §1, §2

[15] = system: KMS-34 cells; settings: KMS-34, HMCL-B, read-out: Mean IC50
Procedure: as §1, §2

[16] = system: L363 cells; settings: L363, PCL/MM, read-out: Mean IC50
Procedure: as §1, §2

[17] = system: MDA-MB-231 cells; settings: MDA-MB-231, TNBC, read-out: Mean IC50
Procedure: as §1, §2

[18] = system: MDA-MB-468 cells; settings: MDA-MB-468, TNBC, read-out: Mean IC50
Procedure: as §1, §2

[19] = system: MIA PaCa-2 cells; settings: MIA PaCa-2, Pancreatic, read-out: Mean IC50
Procedure: as §1, §2

[20] = system: MOLP-8 cells; settings: MOLP-8, MM IgD, read-out: Mean IC50
Procedure: as §1, §2

[21] = system: OCI-LY3 cells; settings: OCI-LY3, ABC-DLBCL, read-out: Mean IC50
Procedure: as §1, §2

[22] = system: SiHA cells; settings: Cervical - SC, read-out: Mean IC50
Procedure: as §1, §2

[23] = system: RPMI-8226 cells; settings: RPMI-8226, HMM
Procedure: as §2
In this example, different cell lines were subjected to in vitro cell proliferation assays as described in Example 8. In particular, the cell lines are identified in the following Table 17, and the tissue types were: Pancreatic; Endometrial; Triple-Negative Breast Cancer (TNBC); Non-Small-Cell Lung Carcinoma (NSCLC); Ovarian; Renal Cell Carcinoma (RCC); Cervical-Squamous Cell; […] (H&N-Squamous Cell); Germinal Center B Cell-Like Novo Diffuse Large B-Cell Lymphoma (GCB-DLBCL); Activated B-Cell—Diffuse Large B Cell Lymphoma (ABC-DLBCL); Human Myeloma; Human Myeloma Cell Line Lymphocyte-Like; Human Myeloma Cell Line Lymphocyte-Like Myeloma Pleural Effusion Infiltration; Human Multiple Myeloma; Plasma Cell Leukemia/Multiple Myeloma Epstein-Barr Nuclear Antigen-Negative (EBNA-Negative) and to Express mRNA for Proto-Oncogene B-Cell Lymphoma 2 (BCL2); Multiple Myeloma from Peripheral Blood Type IgD Lmabda.

SMILES: COc1ccc2c3c([nH]c2c1)C(CC(CC1=NCCc2c1[nH]c1cc(OC)ccc21)c1ccc(F)c(Oc2ccccc2)c1)=NCC3 [compound 19]
pIC50 [1]: 4.66
pIC50 [2]: 4.56
pIC50 [3]: 4.05
pIC50 [4]: 4.64
pIC50 [5]: 4.34
pIC50 [6]: 4.44
pIC50 [7]: 4.99
pIC50 [8]: 4.35
pIC50 ([9]; NSCLC): 4.25
pIC50 ([10]; NSCLC): 4.26
pIC50 [11]: 4.29
pIC50 [12]: 4.35
pIC50 [13]: 4.37
pIC50 [14]: 4.59
pIC50 [15]: 4.51
pIC50 [16]: 4.43
pIC50 [17]: 4.38
pIC50 [18]: 4.31
pIC50 [19]: 4.44
pIC50 [20]: 5.01
pIC50 [21]: 4.69
pIC50 [22]: 4.12
pIC50 [23]: 4.98

SMILES: COc1ccc2c3c([nH]c2c1)C(CC(CC1=NCCc2c1[nH]c1cc(OC)ccc21)c1cccc(F)c1)=NCC3 [compound 20]
pIC50 [1]: 5.43
pIC50 [2]: 5.30
pIC50 [3]: 4.95
pIC50 [4]: 5.73
pIC50 [5]: 5.44
pIC50 [6]: 5.65
pIC50 [7]: 5.73
pIC50 [8]: 5.39
pIC50 ([9]; NSCLC): 5.35
pIC50 ([10]; NSCLC): 5.19
pIC50 [11]: 5.20
pIC50 [12]: 4.96
pIC50 [13]: 5.37
pIC50 [14]: 5.44
pIC50 [15]: 5.49
pIC50 [16]: 5.41
pIC50 [17]: 5.33
pIC50 [18]: 5.29
pIC50 [19]: 5.57
pIC50 [20]: 5.64
pIC50 [21]: 5.41
pIC50 [22]: 5.17
pIC50 [23]: 5.90

SMILES: COc1ccc2c3c([nH]c2c1)C(CC(CC1=NCCc2c1[nH]c1cc(OC)ccc21)c1ccc(F)cc1)=NCC3 [compound 21]
pIC50 [1]: 5.12
pIC50 [2]: 5.01
pIC50 [3]: 4.93
pIC50 [4]: 5.41
pIC50 [5]: 5.29
pIC50 [6]: 5.45
pIC50 [7]: 5.44
pIC50 [8]: 5.20
pIC50 ([9]; NSCLC): 5.09
pIC50 ([10]; NSCLC): 4.94
pIC50 [11]: 4.96
pIC50 [12]: 4.93
pIC50 [13]: 5.26
pIC50 [14]: 5.19
pIC50 [15]: 5.42
pIC50 [16]: 5.29
pIC50 [17]: 5.23
pIC50 [18]: 5.17
pIC50 [19]: 5.36
pIC50 [20]: 5.43
pIC50 [21]: 5.31
pIC50 [22]: 4.94
pIC50 [23]: 5.45

SMILES: COc1ccc2c3c([nH]c2c1)C(CC(CC1=NCCc2c1[nH]c1cc(OC)ccc21)c1cc(F)cc(F)c1)=NCC3 [compound 22]
pIC50 [1]: 5.04
pIC50 [2]: 5.03
pIC50 [3]: 4.67
pIC50 [4]: 5.38
pIC50 [5]: 5.06
pIC50 [6]: 5.27
pIC50 [7]: 5.37
pIC50 [8]: 4.96
pIC50 ([9]; NSCLC): 4.95
pIC50 ([10]; NSCLC): 4.94
pIC50 [11]: 4.88
pIC50 [12]: 4.93
pIC50 [13]: 5.13
pIC50 [14]: 5.21
pIC50 [15]: 5.41
pIC50 [16]: 5.21
pIC50 [17]: 5.15
pIC50 [18]: 4.94
pIC50 [19]: 5.23
pIC50 [20]: 5.42
pIC50 [21]: 5.01
pIC50 [22]: 4.93
pIC50 [23]: 5.69

SMILES: COc1ccc2c3c([nH]c2c1)C(CC(CC1=NCCc2c1[nH]c1cc(OC)ccc21)c1cc(F)c(F)cc1F)=NCC3 [compound 23]
pIC50 [1]: 5.29
pIC50 [2]: 5.19
pIC50 [3]: 4.67
pIC50 [4]: 5.62
pIC50 [5]: 5.03
pIC50 [6]: 5.30
pIC50 [7]: 5.43
pIC50 [8]: 5.21
pIC50 ([9]; NSCLC): 5.23
pIC50 ([10]; NSCLC): 5.08
pIC50 [11]: 4.96
pIC50 [12]: 4.90
pIC50 [13]: 5.20
pIC50 [14]: 5.40
pIC50 [15]: 5.46
pIC50 [16]: 5.33
pIC50 [17]: 5.23
pIC50 [18]: 5.18
pIC50 [19]: 5.25
pIC50 [20]: 5.50
pIC50 [21]: 5.26
pIC50 [22]: 4.93
pIC50 [23]: 5.89

pIC50 ([1]; Homo sapiens): 4.97
pIC50 ([2]; Homo sapiens, A2780C/P): 4.75
pIC50 ([5]; Homo sapiens, ASPC1): 4.49
pIC50 ([6]; Homo sapiens): 4.97
pIC50 ([9]; Homo sapiens, NCI-H1650, NSCLC): 4.90
pIC50 ([10]; Homo sapiens, NCI-H1975, NSCLC): 4.93
pIC50 ([17]; Homo sapiens): 4.68
pIC50 ([18]; Homo sapiens): 4.78
pIC50 ([19]; Homo sapiens): 4.89
pIC50 ([21]; Homo sapiens): 4.94
pIC50 ([23]; Homo sapiens): 5.30
SMILES: COc1ccc2c3c([nH]c2c1)C(CC(CC1=NCCc2c1[nH]c1cc(OC)ccc21)c1c(F)c(F)c(F)c(F)c1F)=NCC3 [compound 24]
pIC50 ([3]; Homo sapiens): 4.08
pIC50 ([4]; Homo sapiens, AN3-CA): 4.95
pIC50 ([7]; Homo sapiens): 5.25
pIC50 ([8]; Homo sapiens): 4.93
pIC50 ([11]; Homo sapiens): 4.59
pIC50 ([12]; Homo sapiens): 4.32
pIC50 ([13]; Homo sapiens): 4.25
pIC50 ([14]; Homo sapiens): 4.95
pIC50 ([15]; Homo sapiens): 5.11
pIC50 ([16]; Homo sapiens, L-363): 4.88
pIC50 ([20]; Homo sapiens): 4.98
pIC50 ([22]; Homo sapiens): 4.23

SMILES: COc1ccc2c3c([nH]c2c1)C(CC(CC1=NCCc2c1[nH]c1cc(OC)ccc21)c1ccc(Cl)cc1)=NCC3 [compound 27]
pIC50 [1]: 5.09
pIC50 [2]: 4.95
pIC50 [3]: 4.93
pIC50 [4]: 5.36
pIC50 [5]: 5.13
pIC50 [6]: 5.34
pIC50 [7]: 5.60
pIC50 [8]: 4.95
pIC50 ([9]; NSCLC): 4.95
pIC50 ([10]; NSCLC): 4.94
pIC50 [11]: 4.94
pIC50 [12]: 4.93
pIC50 [13]: 4.94
pIC50 [14]: 5.14
pIC50 [15]: 5.35
pIC50 [16]: 5.11
pIC50 [17]: 5.13
pIC50 [18]: 4.97
pIC50 [19]: 5.23
pIC50 [20]: 5.40
pIC50 [21]: 5.03
pIC50 [22]: 4.94
pIC50 [23]: 5.49
